The results in this text go back to US7915272B2 (priority 2006, dated 2011).

Counter-ions that a name gives are not always drawn. Some results are limits rather than exact numbers.

For orientation: IC50 means the concentration at which inhibition is half-maximal. A low value points to greater potency.

The assay concerns the target α7-subtype of nicotinic receptors (Rattus norvegicus, UniProt Q05941). Kind of assay: biochemical. The class given is binding.

Sequence of α7-subtype of nicotinic receptors (Q05941 23-502): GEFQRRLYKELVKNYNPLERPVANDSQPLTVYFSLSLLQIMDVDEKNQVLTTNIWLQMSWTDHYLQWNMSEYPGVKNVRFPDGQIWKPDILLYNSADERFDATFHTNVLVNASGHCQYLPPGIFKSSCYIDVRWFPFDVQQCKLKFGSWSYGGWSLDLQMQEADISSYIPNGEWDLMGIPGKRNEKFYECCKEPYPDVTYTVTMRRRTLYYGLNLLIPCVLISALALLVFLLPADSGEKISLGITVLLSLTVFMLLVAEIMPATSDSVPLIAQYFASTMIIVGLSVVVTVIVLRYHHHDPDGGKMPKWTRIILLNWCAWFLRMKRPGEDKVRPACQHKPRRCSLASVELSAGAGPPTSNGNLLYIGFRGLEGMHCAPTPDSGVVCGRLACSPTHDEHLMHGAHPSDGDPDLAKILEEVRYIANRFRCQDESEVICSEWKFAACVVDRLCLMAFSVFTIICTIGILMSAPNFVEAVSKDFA

Regarding `O=C(Nc1cnc(N2CCN3CCC2CC3)nc1)c1ccccc1F` [Compound 1, N-[2-(1,4-Diaza-bicyclo[3.2.2]non-4-yl)-pyrimidin-5-yl]-2-fluoro-benzamide hydrochloric acid salt], the concentration for half-maximal inhibition (IC50) is below 100 nM.
